Here are results for 1 substance from publication PMC5290737, “Surface mediated cooperative interactions of drugs enhance mechanical forces for antibiotic action” (Scientific Reports, 2017).

Like-named read-outs stand apart in the source and are kept apart here.

The target of test [1] is vancomycin-resistant receptor (VRR). To be noted: ref. 3 (Van), ref. 5 (Rist), ref. 4 (CE), supplementary references, read-out: Ksurf SPR; cited from earlier work.
For a further test, the target named is VSR (Ac-VSR) in solution. To be noted: VSR in solution; ref. 1 (Van, Rist), ref. 7 (CE), ref. 2 (Ori), supplementary references; read-out: Ksurf Solution; cited from earlier work.
The test system of test [2] is vancomycin-resistant receptor (VRR). Nature of the test: Cantilever surface stress assay, antibiotic binding to surface-bound VRR. An excerpt:
(§1) To probe different pathways of signal-transduction central to the efficacy of recognition mechanisms and therapeutic agents, we used cantilever force-based technology. Because of its nanometre strain sensitivity, this technology can directly measure the smallest changes in mechanical strain caused by specific antibiotic binding. The principles of force transduction and measurements are well established[18][19][20] and many studies focused on cantilever sensors have been published. Unlike conventional methods such as 1H–NMR spectroscopy, enzyme-linked immunosorbent assays (ELISA)[29] or surface plasmon resonance (SPR)[30] which measure optical signatures of chemical binding, cantilever technology has the capacity to resolve forces at the level of individual hydrogen bonds, making it uniquely suited to provide important insight into force transduction mechanisms, such as cell wall strain in response to antibiotic binding. Moreover, in contrast to direct current or low-frequency signals, which cannot probe beyond electrical double layers formed by screening salts, mechanical signaling is sensitive to ligands even when they are located at distance of ~1 nm or more from the sensor surface (Fig. 1d). Measurements were performed using cantilevers functionalized with self-assembled monolayers (SAM) of VSR, VRR or reference polyethylene glycol (PEG) (see methods & materials, Supplementary Information). The specificity of mechanical signaling was achieved by performing measurements in differential mode, where the bending response of the reference PEG-coated cantilevers, (known to reduce nonspecific drug adsorption[8][14][34]) was subtracted from VSR- and VRR-coated cantilever signals (see cantilever measurement procedure, method section).
(§2) Thus far, we have discussed the impact of near-membrane layer on the association kinetics, mechanical force transduction, specificity of molecular recognition and microbial susceptibility. To gain mechanistic insight (Fig. 7a,b), we averaged measurements for each drug-target interaction over four separate chips and the results are summarized in Fig. 7c,d. […] The mechanical signaling response follows an s-shaped curve undergoing its steepest rise at N ~1/Ksurf before reaching a plateau when the binding sites are fully occupied (Fig. 7c,d). To calculate Ksurf, we used equation (2)[14], based on the conventional Hill adsorption model.
(§3) Here, Ksurf is raised to the power n to ensure that it maintains the dimension of concentration as n varies. Setting n = 1 yields the Langmuir isotherm where the reactions occur independently, while n > 1 corresponds to positive co-operative polyvalent interactions and n < 1 is a measure of negative co-operativity. In Fig. 7c,d, we find that the mechanical response at VSR levels off at 50 μM concentration for all antibiotics. In contrast, for the drug-resistant VRR a concentration of more than 1000 μM of Van, Rist or CE was required to reach indistinguishable maximum signals. The outcome of the fit using three parameters (n, Ksurf and σmax) is summarized in Supplementary Fig. 2. The calculated Ksurf for Ori binding to VSR is 40 ± 10 nM, which is 25 times stronger than for Van where Ksurf is 1.0 ± 0.3 μM. The Ksurf of Ori against VRR is 70 ± 10 nM, an astonishing 11,000 times stronger than for Van where Ksurf is 800 ± 300 μM. As a further measurement control and to confirm the accuracy of surface binding affinity, we used a commercially available SPR method (Fig. 7e,f and Supplementary SPR sensor chip functionalization procedure), where the detection of ligands is at a single planar metal surface.
(§4) The modified cantilever chip was mounted in a sealed liquid cell. The alignment of each light source onto the free end of each cantilever was confirmed by heating liquid chamber to 1 °C rise. […]

The target in another test is VRR in solution. Particulars: ref. 1 (Van), ref. 6 (Rist), ref. 8 (CE), ref. 2 (Ori), supplementary references, read-out: Ksurf Solution; cited from earlier work.
Test [3] has as its system methicillin-susceptible Staphylococcus aureus (MSSA) ATCC 29213. Description: MIC by broth microdilution (CLSI M07-A8), with PS80. Particulars: MSSA ATCC 29213, with PS80. Type of test: cell-based. Here is the method:
Determination of MIC values to methicillin-susceptible Staphylococcus aureus (MSSA).
Minimum Inhibitory Concentration (MIC) is defined as the lowest concentration of antibacterial agent required to inhibit growth of a microorganism after incubation. The antibiotics vancomycin (Van) and ristomycin (Rist) were obtained from Sigma-Aldrich while chloroeremomycin (CE) and oritavancin (Ori) were obtained from the Medicine Company Inc., U.S.A. To prepare antibiotic stock solutions for MICs assay, 5 mg/ml of each drug was dissolved in water containing an appropriate volume of 0.002% polysorbate-80 or PS80 obtained from Sigma-Aldrich which corresponds to 20 µM to eliminate nonspecific interactions of drugs to surfaces particularly for Ori which is known to bind to glass and plastics13. Microbiological broth with PS80 maintained at 20 µM was used in the drug dilution steps until the required final (assay) concentration. Diluted concentrations of each drug were assayed by adding an inoculum of methicillin-susceptible Staphylococcus aureus (MSSA) ATCC 29213 cells and the MIC determined by broth microdilution according to Clinical Laboratory Standards Institute (CLSI) methodology M07-A8 (CLSI 2009a)14. The results as shown in Supplementary Table S2 for each antibiotic against clinical isolate of MSSA ATCC 29213 strains conducted in the presence of […]
PS80 are within the quality control ranges defined in the guideline15. […]
Background: Broth dilution looks for growth in wells or tubes with falling amounts of substance.

Test [4] deals with vancomycin-susceptible receptor (VSR). Description: Cantilever surface stress assay, antibiotic binding to surface-bound VSR.
Source text: as §1, §2, §3, §4

Test [5] has the same target. Particulars: ref. 4 (Rist), ref. 3 (CE), supplementary references, read-out: Ksurf SPR; cited from earlier work.
The conditions of test [6]: ligand-ligand dissociation constant in solution; ref. 2 (Van, CE, Ori), ref. 5 (Rist), supplementary references; read-out: K1 Solution (complex aggregation constant); cited from earlier work.
Test [7] relates to vancomycin susceptible E. faecalis (VSE). Particulars: absence of polysorbate-80; ref. 9 (Van, CE, Ori), ref. 10 (Rist), supplementary references; cited from earlier work.
Test [8] concerns vancomycin resistant E. faecalis (VRE). Particulars: absence of polysorbate-80; ref. 2 (Van), ref. 5 (Rist, CE), ref. 9 (Ori), supplementary references; cited from earlier work.

By MIC is commonly meant the lowest concentration that inhibits growth of the organism. High values mean weaker potency, low ones greater potency. On to ristomycin, for which the Kd in test [1] is 6.7 µM; on VSR (Ac-VSR) in solution it was 1.7 µM; in [2] (VRR on cantilever, fit of equation (2), pH 7.4 sodium phosphate buffer, read-out: Ksurf Cantilever (surface equilibrium dissociation constant)) it was 32 ± 17 µM; on VRR in solution, 3850 µM; in test [4] (VSR on cantilever, fit of equation (2), pH 7.4 sodium phosphate buffer, read-out: Ksurf Cantilever (surface equilibrium dissociation constant)) it was 0.9 ± 0.5 µM; in test [5] it was 0.2 µM. Also, the Kd in test [6] was 3000 µM. Moreover, the compressive surface stress in [2] (10 μM antibiotic against VRR) is on record as ~ 2 mNm^−1. The “concentration required to reach indistinguishable maximum signals” value in test [2] (VRR) is “more than 1000 μM”. Besides, the “maximum stress data, Mean” value is on record as 7.5 in [2] (VRR, 4 chips, one-way ANOVA table S4) and 34.5 in [4] (VSR, 4 chips, one-way ANOVA table S5). The MIC worked out at 8.0 µg/mL in [3] and 3.69 µM in [3] (converted from mg/l). Moreover, in test [4] (independent samples t-test, 4 chips, table S6), the “Mean difference of stress, VSR versus VRR” value is 27.0. In addition, the “MIC VSE” value in [7] is 12.5 µg/mL. Moreover, the “MIC VRE” value in test [8] is 512 µg/mL.
